For two compounds, solubility results are on record in patent US10159671B2, “Compositions of multiple aripiprazole prodrugs” (ALKERMES PHARMA IRELAND LIMITED, priority 2016, dated 2018).

Data set [1] can be described thus: Solubility in water. The data set is classed as physicochemical. The protocol:
The present invention combines particle populations of at least two distinct aripiprazole prodrugs. In a preferred embodiment the composition comprises a particle population of aripiprazole lauroxil and aripiprazole cavoxil particles. The physical and chemical properties of the aripiprazole prodrugs within the scope of the present invention can vary considerably. For instance, aripiprazole cavoxil was determined to have a solubility in water of less than about 1 μg/ml, whereas aripiprazole lauroxil was determined to have a solubility of less than about 4 ng/mL.

The nature of data set [2]: Solubility in a solution comprising 1.5% (w/w) polysorbate 20. Conditions: aqueous solution with 1.5% (w/w) polysorbate 20, aqueous with cosolvent or surfactant or cyclodextrin; 1.5% (w/w) polysorbate 20 at 40° C., pH 7. The format is physicochemical. The text has this:
These represent significant differences in the water solubility of the aforementioned prodrugs.

For the compound `CCCCCC(=O)OCN1C(=O)CCc2ccc(OCCCCN3CCN(c4cccc(Cl)c4Cl)CC3)cc21` [aripiprazole cavoxil, (7-(4-(4-(2,3-Dichlorophenyl)piperazin-1-yl)butoxy)-2-oxo-3,4-dihydroquinolin-1(2H)yl)methyl hexanoate], the solubility (commonly how much of the substance goes into solution per volume) in data set [1] is below 1 µg/mL; in data set [2], below 50 µg/mL.
In the same order, the values of `CCCCCCCCCCCC(=O)OCN1C(=O)CCc2ccc(OCCCCN3CCN(c4cccc(Cl)c4Cl)CC3)cc21` [aripiprazole lauroxil, Dodecanoic acid, [7-[4-[4-(2,3-dichlorophenyl)-1-piperazinyl]butoxy]-3,4-dihydro-2-oxo-1(2H)-quinolinyl]methyl ester] are below 0.004 µg/mL and below 2 µg/mL.
